Assay results reported in patent publication EP0831877B1, “METABOLIC EFFECTS OF CERTAIN GLUTATHIONE ANALOGS” (TELIK, INC., priority 1995, dated 1996).

Legend:
[1] = in vitro half-life / metabolism in mouse blood; type: in vitro ADME
[2] = in vitro half-life in human blood; type: in vitro ADME
[3] = tested on: HT-29 (human colon adenocarcinoma) cells; test: modified clonogenic assay, potentiation of chlorambucil cytotoxicity; type: cell-based
Protocol: HT-29 (human colon adenocarcinoma) cells were obtained from Dr. Roberto Ceriani (Cancer Research Fund of Contra Costa County, Walnut Creek, CA) and were used in log phase of growth unless otherwise specified. Chlorambucil (CMB) was obtained from Sigma (St. Louis, MO) and was dissolved in 100% ethanol. All GST inhibitors were dissolved in ethanol, DMSO, or water just prior to use. The same amount of solvent added to culture medium served as the vehicle control.
In a modified clonogenic assay for cytotoxicity, cells were suspended at 2 x 10^5 cells/ml in serum-free medium in the presence of vehicle or inhibitor. […] Cells were incubated for 2 hours, then varying doses of CMB were added. At the end of a second 2-hour incubation, cells were diluted to 7.5-10 x 10^3/ml in serum-containing medium and plated in quadruplicate at 200 µl/well in Microtest III microtiter plates.
Plates were incubated for 6 days and assayed by a modified methylene blue method. Briefly, cells were fixed with 1.25% glutaraldehyde in PBS then stained with 0.05% methylene blue in distilled water. Plates were washed several times in distilled water to remove unretained dye and retained dye was resolubilized in 0.03 N HCl. Plates were read at 650 nm in a Molecular Devices Vmax plate reader (Molecular Devices, Redwood City, CA). […] A dose modification factor (DMF), a measure of potentiation of cytotoxicity, was calculated for each inhibitor by dividing the IC50 value of CMB without inhibitor treatment by the IC50 value for CMB with inhibitor treatment.

Compound: CCNC(=O)C(N)CCC(=O)NC(CSCc1ccccc1)C(=O)N[C@@H](C(=O)OCC)c1ccccc1 (stereo partly drawn) [TER300, γE ethyl amide-C(Bz)-R-(-)-ϕG ethyl ester]
- half-life compared with TER199 [1]: longer half-lives than TER199
- rate of metabolism [1]: intermediate between that of TER199 and TER278
- half-life, comparison of the three compounds [2]: approximately the same
- amount required to achieve equivalent potentiation of chlorambucil, relative to TER199 [3]: Four times as much
- DMF for chlorambucil toxicity ([3]; HT-29, 50 µM, mean ±SD of three experiments): 1.45 ± 0.16
- rate of metabolism (HT-29 cell culture): intermediate between that of TER199 and TER278
